# “And” between values parts separate entries of the source, which are not always exact repeats. Equal entries are not always repeated.
# Columns and labels:
# A375 melanoma cells = experiment: AlamarBlue assay, A375; assay type: cell-based, human; settings: for Cellular activity in melanoma cells (A375), alamarBlue: Fig.1g, replicates
# Procedure: 3. AlamarBlue assay. AlamarBlue was made by resazurin sodium salt (Sigma, Cat
# # 199303) dissolved in PBS.
# NCI-H211, MDA-MB231 and A375 cells were plated in 96-well plates at approximately 30% confluence and left overnight to adhere. In the following day, […]
# of treatment, 10 μl AlamarBlue reagent (0.3 mg/ml) was added to each well, and after 18h, the florescence intensity in each well was measured using a top-reading fluorescent plate reader with excitation at 530 nm and emission at 590 nm. […]
# BRD4 (BD1+BD2) = target: T1, BRD4 (BD1+BD2) (Homo sapiens, UniProt O60885); experiment: BRD4 (BD1+BD2) TR-FRET binding assay; settings: for Biochemical activity against BRD4 (BD1 + BD2): Fig.1d, replicates
# T1 construct: purchased BPS 32612
# Description: 2. BRD4 binding assay. The inhibitory effects of NHWD-530, NHWD-540, NHWD- […]
# (BPS, Cat # 32612) per manufacturer’s instructions. […]
# A2780 cells = experiment: MTT cell growth assay, A2780; assay type: cell-based, human; settings: 5 days
# Procedure: (§1) Fig. 2 NHWD-870 inhibited BRD4 phosphorylation and c-MYC expression, and suppressed cell growth. a Representative western blot analysis of p-BRD4 (s484/488), BRD4, c-MYC, and GAPDH after treatment of MDA-MB231, SUM159, A2780 ES-2, and H526 cells with JQ-1 or NHWD-870 at the indicated concentrations for 24 h. GAPDH served as the loading control. Selected from three independent experiments. b MTT assays of H526, A2780, ES-2, and MDA-MB231 cells treated with JQ-1 or NHWD-870 at the indicated concentrations for 5 days. Data are presented as mean ± SEM from three independent experiments. c, d Clonogenic assays of H526, A2780, ES-2 and MDA-MB231 cells treated with 250 nM JQ-1 or NHWD-870 for 5 days. Shown are representative images (c) and quantification of colonies (d). […] Shown are representative images (e) and quantification of relative colony sizes (f). Scale bar, 50 μm. Data are presented as mean ± SEM from five independent experiments. p values were calculated using two-tailed, unpaired t tests in this figure. **p < 0.01; ***p < 0.001. Source data are provided as a Source Data file.
# 37℃, 5% CO2. […]
# MDA-MB231 TNBC = MDA-MB231 TNBC xenograft growth; assay type: in vivo, mouse; parameters: MDA-MB231 tumor size (Sup Fig.9d; quantity and unit not given): unit not given here
# Procedure: 4–6 weeks old female BALB/c nude mice were used for most experiments, with the exception of 6–8 weeks old female C57BL/6 mice were used for B16F10 experiments, and 6–8 weeks old male BALB/c nude mice and SD rats were used for pharmacokinetic experiments. All animals were purchased from Shanghai SIPPR-Bk Lab Animal Co., Ltd. All animals were housed under a regimen of 12 h light/12 h dark cycles and specific pathogen-free conditions. 5×10^6 NCI-H526, ES-2, MDA-MB231, A2780, A375, B16F10, and TMD-8 cells (0.1 ml) were injected subcutaneously into female nude mice. The melanoma patient-derived xenograft model was derived from a human melanoma sample (BRAF, NARS and NF1 wild type, and p53 mutant) removed from a patient in Xiangya Hospital. Surgically removed tumor fragments were implanted subcutaneously into female NSG mice. When the tumors grew to ~1000 mm^3, they were harvested and cryopreserved or immediately re-implanted for expansion or experiments. Mouse body weight and tumor sizes were measured every 3 days. Once the tumors grew to 150–200 mm^3, mice were treated with the compounds as described in the Figures. 1 × 10^6 A2780 cells (1 ml) were injected into the abdominal cavity of nude mice. Ascitic volume and tumor weight were measured by an electronic balance. All the procedures were evaluated and approved by the Institutional Animal Care and Use Committee of Central South University and Yale University.
# Supplementary Figure 9. […]
# PO, oral administration; QD, once daily; BID, twice daily; D, day. (c,d) Tumor growth curves for ES2 ovarian tumor (c), MDA-MB231 breast tumor (d) bearing mice treated with the indicated compounds for 21 days. Compounds were orally administrated once daily. Data are presented as mean ± SEM from 6 different mice. p values were calculated using two-tailed, unpaired t tests.
# **, p<0.01; ***, p<0.001. Source data are provided as a Source Data file. […]
# ES-2 cells = experiment: 3D matrigel assay, ES-2; assay type: cell-based, human; settings: ES-2, 100 nM
# Procedure: as §1
# Single clone spheroids were generated by culturing A2780, ES-2, H526 and MDA-MB231 cells for 16 h as a hanging drop over a humidified plate in a CO2 incubator in their corresponding complete media. […] The relative spheroid sizes were measured with ImageJ version 1.52s using the 15 representative spheroids.
smiles,measurement,setting,value
Cc1nnn(C)c1-c1cnc2c3c4cnn(C)c4ccc3n([C@H](c3ccccc3)C3CCOCC3)c2c1 [NHWD-870],fold more potent than GSK-525762 or OTX015,A375 melanoma cells; A375 cells,about 14 fold
same,fold more potent than I-BET151,A375 melanoma cells; A375 cells,about 23 fold
same,"Cellular activity in melanoma cells (A375), alamarBlue",A375 melanoma cells; concentration(nM) 0.21442,0.8628 and 1.0579
same,"Cellular activity in melanoma cells (A375), alamarBlue",A375 melanoma cells; concentration(nM) 0.31236,16.3424 and 12.5613
same,"Cellular activity in melanoma cells (A375), alamarBlue",A375 melanoma cells; concentration(nM) 0.4103,30.3045 and 25.7042
same,"Cellular activity in melanoma cells (A375), alamarBlue",A375 melanoma cells; concentration(nM) 0.6032,65.3038 and 63.4524
same,"Cellular activity in melanoma cells (A375), alamarBlue",A375 melanoma cells; concentration(nM) 1.2043,75.3216 and 83.4358
same,"Cellular activity in melanoma cells (A375), alamarBlue",A375 melanoma cells; concentration(nM) 1.8024,92.8346 and 91.942
same,"Cellular activity in melanoma cells (A375), alamarBlue",A375 melanoma cells; concentration(nM) 2.4,100.774 and 99.5602
same,"Cellular activity in melanoma cells (A375), alamarBlue",A375 melanoma cells; concentration(nM) 3,101.341 and 101.79
same,IC50,"A375 melanoma cells; Homo sapiens, A-375, nM printed in b8, the picture prints no unit, read-out: IC50, cellular activity in A375 (alamarBlue)",2.46 nM
same,Biochemical activity against BRD4 (BD1 + BD2),BRD4 (BD1+BD2); concentration(nM) 0.0021442,0.8628 and 1.4579
same,Biochemical activity against BRD4 (BD1 + BD2),BRD4 (BD1+BD2); concentration(nM) 0.061236,16.5754 and 12.5588
same,Biochemical activity against BRD4 (BD1 + BD2),BRD4 (BD1+BD2); concentration(nM) 0.103,20.2946 and 25.6828
same,Biochemical activity against BRD4 (BD1 + BD2),BRD4 (BD1+BD2); concentration(nM) 0.59176,60.3038 and 63.4692
same,Biochemical activity against BRD4 (BD1 + BD2),BRD4 (BD1+BD2); concentration(nM) 1.19382,79.3053 and 83.6424
same,Biochemical activity against BRD4 (BD1 + BD2),BRD4 (BD1+BD2); concentration(nM) 1.79588,95.9066 and 95.1156
same,Biochemical activity against BRD4 (BD1 + BD2),BRD4 (BD1+BD2); concentration(nM) 2.39794,100.74 and 99.5542
same,Biochemical activity against BRD4 (BD1 + BD2),BRD4 (BD1+BD2); concentration(nM) 3,101.339 and 101.804
same,IC50,"BRD4 (BD1+BD2); average IC50, nM, read-out: IC50, biochemical activity against BRD4 (BD1 + BD2)",2.7 nM and 2.72 nM
same,"MTT assay, relative cell number","A2780 cells; A2780, 0.1 nM",0.974 and 0.959 and 0.985
same,"MTT assay, relative cell number","A2780 cells; A2780, 1 nM",0.705 and 0.725 and 0.731
same,"MTT assay, relative cell number","A2780 cells; A2780, 10 nM",0.252 and 0.282 and 0.215
same,"MTT assay, relative cell number","A2780 cells; A2780, 100 nM",0.025 and 0.047 and 0.033
same,"MTT assay, relative cell number","A2780 cells; A2780, 500 nM",0
same,"MTT assay, relative cell number","A2780 cells; A2780, 1000 nM",0
same,"MTT assay, relative cell number","A2780 cells; A2780, 5000 nM",0
same,"MTT assay, relative cell number","A2780 cells; A2780, 10000 nM",0
same,MDA-MB231 tumor size (Sup Fig.9d; quantity and unit not given),"MDA-MB231 TNBC; 1mg/kg p.o. QD x 21D, day 0, individual animals",279.42 and 121.19 and 223.85 and 207.81 and 142.25 and 116.01
same,MDA-MB231 tumor size (Sup Fig.9d; quantity and unit not given),"MDA-MB231 TNBC; 1mg/kg p.o. QD x 21D, day 3, individual animals",342.36 and 216.69 and 301.84 and 236.23 and 182.39 and 129.14
same,MDA-MB231 tumor size (Sup Fig.9d; quantity and unit not given),"MDA-MB231 TNBC; 1mg/kg p.o. QD x 21D, day 7, individual animals",454.4 and 329.94 and 520.71 and 309.24 and 176.3 and 192.56
same,MDA-MB231 tumor size (Sup Fig.9d; quantity and unit not given),"MDA-MB231 TNBC; 1mg/kg p.o. QD x 21D, day 10, individual animals",681 and 486.76 and 545.06 and 482.5 and 217.9 and 268.16
same,MDA-MB231 tumor size (Sup Fig.9d; quantity and unit not given),"MDA-MB231 TNBC; 1mg/kg p.o. QD x 21D, day 14, individual animals",889.946 and 639.335 and 784.126 and 538.093 and 253.479 and 345.127
same,MDA-MB231 tumor size (Sup Fig.9d; quantity and unit not given),"MDA-MB231 TNBC; 1mg/kg p.o. QD x 21D, day 17, individual animals",973.96 and 796.38 and 1110.48 and 713.45 and 300.77 and 432.71
same,MDA-MB231 tumor size (Sup Fig.9d; quantity and unit not given),"MDA-MB231 TNBC; 1mg/kg p.o. QD x 21D, day 21, individual animals",1038.8 and 904.78 and 1426.58 and 1004.43 and 413.96 and 626.93
same,MDA-MB231 tumor size (Sup Fig.9d; quantity and unit not given),"MDA-MB231 TNBC; 3mg/kg p.o. QD x 21D, day 0, individual animals",118.16 and 163.39 and 132.22 and 223.66 and 238.14 and 193.21
same,MDA-MB231 tumor size (Sup Fig.9d; quantity and unit not given),"MDA-MB231 TNBC; 3mg/kg p.o. QD x 21D, day 3, individual animals",111.38 and 180.22 and 170.04 and 238.46 and 333.75 and 199.82
same,MDA-MB231 tumor size (Sup Fig.9d; quantity and unit not given),"MDA-MB231 TNBC; 3mg/kg p.o. QD x 21D, day 7, individual animals",184.36 and 185.35 and 194.47 and 370.49 and 294.2 and 222.64
same,MDA-MB231 tumor size (Sup Fig.9d; quantity and unit not given),"MDA-MB231 TNBC; 3mg/kg p.o. QD x 21D, day 10, individual animals",223.77 and 229.36 and 217.46 and 450.48 and 331.57 and 251.49
same,MDA-MB231 tumor size (Sup Fig.9d; quantity and unit not given),"MDA-MB231 TNBC; 3mg/kg p.o. QD x 21D, day 14, individual animals",325.631 and 331.431 and 303.664 and 453.402 and 392.114 and 282.288
same,MDA-MB231 tumor size (Sup Fig.9d; quantity and unit not given),"MDA-MB231 TNBC; 3mg/kg p.o. QD x 21D, day 17, individual animals",488.17 and 465.37 and 409.38 and 652.35 and 540.67 and 429.56
same,MDA-MB231 tumor size (Sup Fig.9d; quantity and unit not given),"MDA-MB231 TNBC; 3mg/kg p.o. QD x 21D, day 21, individual animals",586.22 and 557.41 and 558.02 and 759.6 and 643.46 and 481.28
same,effect on tumor growth,"MDA-MB231 TNBC; MDA-MB231 TNBC, oral once daily 21 days",strong tumor-suppressive effects
same,"Clone Size (relative colony size, 3D matrigel assay)",ES-2 cells,35.3 and 32.7 and 30.1 and 25.5 and 23.9

# Source: publication PMC7156724, “Potent BRD4 inhibitor suppresses cancer cell-macrophage interaction” (Nature Communications, 2020)
